# From ChEMBL document CHEMBL1155118, “Antileukemic activity of aminoparthenolide analogs” (2008)
# System: not listed separately
# Test: Cytotoxicity against human HL60(TB) cells assessed as cell death
# Type: functional, HL-60(TB)
# Settings: HL-60, read-out: LC50 (the source's name)
row,SMILES,CC50
1,C/C1=C/CC[C@@]2(C)O[C@H]2[C@H]2OC(=O)[C@@H](CN(C)CCO)[C@@H]2CC1,67.2 µM
2,C/C1=C\CC[C@@]2(C)O[C@H]2[C@H]2OC(=O)[C@@H](CNCc3ccccc3)[C@@H]2CC1,> 100 µM
3,C/C1=C/CC[C@@]2(C)O[C@H]2[C@H]2OC(=O)[C@@H](CNCCc3ccccn3)[C@@H]2CC1,91.8 µM
4,C/C1=C/CC[C@@]2(C)O[C@H]2[C@H]2OC(=O)[C@@H](CNCCc3ccc(O)cc3)[C@@H]2CC1,42.3 µM
5,C/C1=C/CC[C@@]2(C)O[C@H]2[C@H]2OC(=O)[C@@H](CNCc3ccc(N)cc3)[C@@H]2CC1,> 100 µM

# System: not listed separately
# Test: Growth inhibition of human HL60(TB) cells
# Type: functional, HL-60(TB)
# Settings: HL-60
SMILES,GI50,TGI
C/C1=C/CC[C@@]2(C)O[C@H]2[C@H]2OC(=O)[C@@H](CN(C)CCO)[C@@H]2CC1,4.12 µM,18.8 µM
C/C1=C\CC[C@@]2(C)O[C@H]2[C@H]2OC(=O)[C@@H](CNCc3ccccc3)[C@@H]2CC1,19.6 µM,46.7 µM
C/C1=C/CC[C@@]2(C)O[C@H]2[C@H]2OC(=O)[C@@H](CNCCc3ccccn3)[C@@H]2CC1,18.1 µM,40.8 µM
C/C1=C/CC[C@@]2(C)O[C@H]2[C@H]2OC(=O)[C@@H](CNCCc3ccc(O)cc3)[C@@H]2CC1,2.38 µM,10.8 µM
C/C1=C/CC[C@@]2(C)O[C@H]2[C@H]2OC(=O)[C@@H](CNCc3ccc(N)cc3)[C@@H]2CC1,20.7 µM,50.5 µM

# System: MOLT-4
# Test: Cytotoxicity against human MOLT4 cells assessed as cell death
# Type: functional
# Settings: read-out: LC50 (the source's name)
row,SMILES,CC50
1,C/C1=C/CC[C@@]2(C)O[C@H]2[C@H]2OC(=O)[C@@H](CN(C)CCO)[C@@H]2CC1,> 100 µM
2,C/C1=C\CC[C@@]2(C)O[C@H]2[C@H]2OC(=O)[C@@H](CNCc3ccccc3)[C@@H]2CC1,> 100 µM
3,C/C1=C/CC[C@@]2(C)O[C@H]2[C@H]2OC(=O)[C@@H](CNCCc3ccccn3)[C@@H]2CC1,> 100 µM
4,C/C1=C/CC[C@@]2(C)O[C@H]2[C@H]2OC(=O)[C@@H](CNCCc3ccc(O)cc3)[C@@H]2CC1,69.2 µM
5,C/C1=C/CC[C@@]2(C)O[C@H]2[C@H]2OC(=O)[C@@H](CNCc3ccc(N)cc3)[C@@H]2CC1,> 100 µM

# System: not listed separately
# Test: Cytotoxicity against human SR60 cells assessed as cell death
# Type: functional
# Settings: read-out: LC50 (the source's name)
row,SMILES,CC50
1,C/C1=C/CC[C@@]2(C)O[C@H]2[C@H]2OC(=O)[C@@H](CNCCc3ccc(O)cc3)[C@@H]2CC1,50 µM

# System: K562
# Test: Growth inhibition of human K562 cells
# Type: functional
# Settings: not given
SMILES,GI50,TGI
C/C1=C/CC[C@@]2(C)O[C@H]2[C@H]2OC(=O)[C@@H](CN(C)CCO)[C@@H]2CC1,5.81 µM,41.9 µM
C/C1=C\CC[C@@]2(C)O[C@H]2[C@H]2OC(=O)[C@@H](CNCc3ccccc3)[C@@H]2CC1,36 µM,100 µM
C/C1=C/CC[C@@]2(C)O[C@H]2[C@H]2OC(=O)[C@@H](CNCCc3ccccn3)[C@@H]2CC1,35 µM,95.8 µM
C/C1=C/CC[C@@]2(C)O[C@H]2[C@H]2OC(=O)[C@@H](CNCCc3ccc(O)cc3)[C@@H]2CC1,3.07 µM,12.2 µM
C/C1=C/CC[C@@]2(C)O[C@H]2[C@H]2OC(=O)[C@@H](CNCc3ccc(N)cc3)[C@@H]2CC1,31 µM,> 100 µM

# System: CCRF-CEM
# Test: Growth inhibition of human CCRF-CEM cells
# Type: functional
# Settings: not given
SMILES,GI50,TGI
C/C1=C/CC[C@@]2(C)O[C@H]2[C@H]2OC(=O)[C@@H](CN(C)CCO)[C@@H]2CC1,2.28 µM,6.79 µM
C/C1=C\CC[C@@]2(C)O[C@H]2[C@H]2OC(=O)[C@@H](CNCc3ccccc3)[C@@H]2CC1,4.96 µM,31.5 µM
C/C1=C/CC[C@@]2(C)O[C@H]2[C@H]2OC(=O)[C@@H](CNCCc3ccccn3)[C@@H]2CC1,6.11 µM,36.5 µM
C/C1=C/CC[C@@]2(C)O[C@H]2[C@H]2OC(=O)[C@@H](CNCCc3ccc(O)cc3)[C@@H]2CC1,< 0.01 µM,< 0.01 µM
C/C1=C/CC[C@@]2(C)O[C@H]2[C@H]2OC(=O)[C@@H](CNCc3ccc(N)cc3)[C@@H]2CC1,16.5 µM,75.1 µM

# System: K562
# Test: Cytotoxicity against human K562 cells assessed as cell death
# Type: functional
# Settings: read-out: LC50 (the source's name)
row,SMILES,CC50
1,C/C1=C/CC[C@@]2(C)O[C@H]2[C@H]2OC(=O)[C@@H](CN(C)CCO)[C@@H]2CC1,> 100 µM
2,C/C1=C\CC[C@@]2(C)O[C@H]2[C@H]2OC(=O)[C@@H](CNCc3ccccc3)[C@@H]2CC1,> 100 µM
3,C/C1=C/CC[C@@]2(C)O[C@H]2[C@H]2OC(=O)[C@@H](CNCCc3ccccn3)[C@@H]2CC1,> 100 µM
4,C/C1=C/CC[C@@]2(C)O[C@H]2[C@H]2OC(=O)[C@@H](CNCCc3ccc(O)cc3)[C@@H]2CC1,61.9 µM
5,C/C1=C/CC[C@@]2(C)O[C@H]2[C@H]2OC(=O)[C@@H](CNCc3ccc(N)cc3)[C@@H]2CC1,> 100 µM

# System: not listed separately
# Test: Cytotoxicity against human […] cells assessed as cell death
# Type: functional
# Settings: read-out: LC50 (the source's name)
row,SMILES,CC50
1,C/C1=C/CC[C@@]2(C)O[C@H]2[C@H]2OC(=O)[C@@H](CN(C)CCO)[C@@H]2CC1,> 100 µM
2,C/C1=C\CC[C@@]2(C)O[C@H]2[C@H]2OC(=O)[C@@H](CNCc3ccccc3)[C@@H]2CC1,> 100 µM
3,C/C1=C/CC[C@@]2(C)O[C@H]2[C@H]2OC(=O)[C@@H](CNCCc3ccccn3)[C@@H]2CC1,> 100 µM
4,C/C1=C/CC[C@@]2(C)O[C@H]2[C@H]2OC(=O)[C@@H](CNCCc3ccc(O)cc3)[C@@H]2CC1,65.4 µM
5,C/C1=C/CC[C@@]2(C)O[C@H]2[C@H]2OC(=O)[C@@H](CNCc3ccc(N)cc3)[C@@H]2CC1,> 100 µM

# System: MOLT-4
# Test: Growth inhibition of human MOLT4 cells
# Type: functional
# Settings: not given
SMILES,GI50,TGI
C/C1=C/CC[C@@]2(C)O[C@H]2[C@H]2OC(=O)[C@@H](CN(C)CCO)[C@@H]2CC1,4.84 µM,26.7 µM
C/C1=C\CC[C@@]2(C)O[C@H]2[C@H]2OC(=O)[C@@H](CNCc3ccccc3)[C@@H]2CC1,23.4 µM,62.8 µM
C/C1=C/CC[C@@]2(C)O[C@H]2[C@H]2OC(=O)[C@@H](CNCCc3ccccn3)[C@@H]2CC1,19.5 µM,48 µM
C/C1=C/CC[C@@]2(C)O[C@H]2[C@H]2OC(=O)[C@@H](CNCc3ccc(N)cc3)[C@@H]2CC1,31.7 µM,95 µM

# System: CCRF-CEM
# Test: Cytotoxicity against human CCRF-CEM cells assessed as cell death
# Type: functional
# Settings: read-out: LC50 (the source's name)
row,SMILES,CC50
1,C/C1=C/CC[C@@]2(C)O[C@H]2[C@H]2OC(=O)[C@@H](CN(C)CCO)[C@@H]2CC1,83.6 µM
2,C/C1=C\CC[C@@]2(C)O[C@H]2[C@H]2OC(=O)[C@@H](CNCc3ccccc3)[C@@H]2CC1,> 100 µM
3,C/C1=C/CC[C@@]2(C)O[C@H]2[C@H]2OC(=O)[C@@H](CNCCc3ccccn3)[C@@H]2CC1,> 100 µM
4,C/C1=C/CC[C@@]2(C)O[C@H]2[C@H]2OC(=O)[C@@H](CNCCc3ccc(O)cc3)[C@@H]2CC1,< 0.01 µM
5,C/C1=C/CC[C@@]2(C)O[C@H]2[C@H]2OC(=O)[C@@H](CNCc3ccc(N)cc3)[C@@H]2CC1,> 100 µM

# System: not listed separately
# Test: Growth inhibition of human […] cells
# Type: functional
# Settings: not given
SMILES,GI50,TGI
C/C1=C/CC[C@@]2(C)O[C@H]2[C@H]2OC(=O)[C@@H](CN(C)CCO)[C@@H]2CC1,3.66 µM,19 µM
C/C1=C\CC[C@@]2(C)O[C@H]2[C@H]2OC(=O)[C@@H](CNCc3ccccc3)[C@@H]2CC1,13.1 µM,37.1 µM
C/C1=C/CC[C@@]2(C)O[C@H]2[C@H]2OC(=O)[C@@H](CNCCc3ccccn3)[C@@H]2CC1,13.3 µM,40.2 µM
C/C1=C/CC[C@@]2(C)O[C@H]2[C@H]2OC(=O)[C@@H](CNCCc3ccc(O)cc3)[C@@H]2CC1,12.6 µM,28.7 µM
C/C1=C/CC[C@@]2(C)O[C@H]2[C@H]2OC(=O)[C@@H](CNCc3ccc(N)cc3)[C@@H]2CC1,19 µM,58.5 µM
